The source of these data is ChEMBL document CHEMBL4342491, “Development of a Versatile and Sensitive Direct Ligand Binding Assay for Human NR5A Nuclear Receptors” (ACS Med Chem Lett, 2020).

pIC50, pKd, pKi: −log10 of the molar value.

The target of test [1] is T1, Steroidogenic factor 1 (Homo sapiens, UniProt Q13285).
Description: Displacement of 6N-FAM from SF1 LBD (218 to 461 residues) (unknown origin) expressed in Escherichia coli BL21 pLysS by competitive binding based fluorescence polarization assay
Test [2] concerns the target Nuclear receptor subfamily 5 group A member 2 (Homo sapiens) (UniProt O00482). Description: Binding affinity to human LRH1 LBD expressed in Escherichia coli BL21 by electrophoretic mobility shift assay. On the technique in general: Mobility shift assays separate free from complexed probe on a gel.
For test [3], the target named is T1, Steroidogenic factor 1. Description: Binding affinity to SF1 LBD (218 to 461 residues) (unknown origin) expressed in Escherichia coli BL21 pLysS measured after overnight incubation by fluorescence polarization assay. Background: In fluorescence polarisation assays a small probe gives low polarisation when free and higher when bound to something large.
Test [4] concerns the target T1, Steroidogenic factor 1. Description: Inhibition of Gal4-fused human SF1 LBD (198 to 462 residues) expressed in CHO-K1 cells. The test is classed as cell-based.
Test [5] concerns the target T1, Steroidogenic factor 1. Put plainly: Binding affinity to human SF1 LBD (218 to 461 residues) expressed in Escherichia coli BL21 by electrophoretic mobility shift assay.

T1 sequence (Q13285 whole entry, the tested form may be a part): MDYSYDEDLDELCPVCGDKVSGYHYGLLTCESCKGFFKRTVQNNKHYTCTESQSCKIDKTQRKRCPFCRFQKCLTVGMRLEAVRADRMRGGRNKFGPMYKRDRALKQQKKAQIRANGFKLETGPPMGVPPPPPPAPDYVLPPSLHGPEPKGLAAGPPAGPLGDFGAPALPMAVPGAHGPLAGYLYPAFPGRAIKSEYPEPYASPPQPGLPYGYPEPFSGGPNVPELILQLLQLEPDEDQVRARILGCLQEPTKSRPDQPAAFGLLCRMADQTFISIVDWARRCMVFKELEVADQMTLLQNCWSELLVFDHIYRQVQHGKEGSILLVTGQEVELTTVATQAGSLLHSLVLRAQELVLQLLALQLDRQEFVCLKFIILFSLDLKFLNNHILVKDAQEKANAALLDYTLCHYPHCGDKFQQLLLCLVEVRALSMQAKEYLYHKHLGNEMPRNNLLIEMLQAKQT
Nuclear receptor subfamily 5 group A member 2 (Homo sapiens), sequence (O00482 whole entry, the tested form may be a part): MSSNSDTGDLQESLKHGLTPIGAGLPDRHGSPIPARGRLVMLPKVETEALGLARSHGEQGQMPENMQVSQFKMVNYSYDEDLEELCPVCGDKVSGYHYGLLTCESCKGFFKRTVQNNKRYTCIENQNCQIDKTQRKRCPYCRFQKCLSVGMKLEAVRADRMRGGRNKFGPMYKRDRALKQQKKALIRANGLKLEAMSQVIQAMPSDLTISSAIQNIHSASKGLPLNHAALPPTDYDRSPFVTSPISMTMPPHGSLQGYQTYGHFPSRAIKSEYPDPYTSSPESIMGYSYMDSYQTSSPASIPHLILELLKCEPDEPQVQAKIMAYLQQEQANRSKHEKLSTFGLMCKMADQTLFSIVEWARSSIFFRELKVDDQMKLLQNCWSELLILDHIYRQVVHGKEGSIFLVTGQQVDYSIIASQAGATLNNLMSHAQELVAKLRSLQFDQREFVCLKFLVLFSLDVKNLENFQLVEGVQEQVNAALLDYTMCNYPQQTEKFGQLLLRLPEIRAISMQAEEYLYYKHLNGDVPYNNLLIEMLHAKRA

As a reminder, the pKi is −log10 of the Ki, conventionally taken in molar units. High values mean a small Ki, low ones a large Ki. On to `CCCCCCCCCCCC(=O)OC[C@H](COP(=O)([O-])OCC[N+](C)(C)C)OC(=O)CCCCCCCCCCC`, for which the negative logarithm of the Ki (pKi) on Steroidogenic factor 1 [1] is 6.07.

On Steroidogenic factor 1 [1], `CCCCNC(=O)c1cc(C(C)(C)C)cc(C(C)(C)C)c1O` gave a negative logarithm of the Ki (pKi) of 4.46.

As for `CCCC(=O)OC[C@H](COP(=O)(O)O[C@H]1[C@H](O)[C@@H](OP(=O)(O)O)[C@H](OP(=O)(O)O)[C@@H](OP(=O)(O)O)[C@H]1O)OC(=O)CCC`, the Activity in test [2] is 120 nM.

Broadly, the pKd is the negative decadic logarithm of the Kd, by convention in mol/L. The compound `C=C(c1ccccc1)[C@@]12CC[C@H](NS(N)(=O)=O)[C@@H]1CC(CCCCCCCCCC(=O)Nc1ccc3c(c1)C(=O)OC31c3ccc(O)cc3Oc3cc(O)ccc31)=C2c1ccccc1` gave a pKd at Steroidogenic factor 1 [3] of 7.91.

Take `C=C(c1ccccc1)[C@@]12CC[C@H](N)[C@@H]1CC(CCCCCCCCCC(=O)OC)=C2c1ccccc1`: the pKi on Steroidogenic factor 1 [1] was 5.11.

By pIC50 is commonly meant the IC50 on a negative log10 scale, so that one unit is a factor of ten. At Steroidogenic factor 1 [4], `CCOC(=O)C(C)Oc1cccc2c(=O)n(CC(=O)Nc3ccc4c(c3)OCCO4)ccc12` (centres undefined) had a negative-log IC50 (pIC50) of 7.52.

Regarding `CCCCC/C=C\C/C=C\C/C=C\C/C=C\CCCC(=O)OC(COC(=O)CCCCCCCCCCCCCCCCC)COP(=O)(O)O[C@@H]1[C@H](O)[C@H](O)[C@@H](OP(=O)(O)O)[C@H](OP(=O)(O)O)[C@H]1O` (some centres undefined), the Activity at Steroidogenic factor 1 [5] was determined as 250 nM. This compound had a pKi at Steroidogenic factor 1 [1] of 6.38.

`C=C(c1ccccc1)[C@@]12CC[C@H](NS(N)(=O)=O)C1CC(CCCCCC)=C2c1ccccc1` (some centres undefined): the pKi on Steroidogenic factor 1 [1] is 5.85.
